Laboratory results published in ChEMBL document CHEMBL4402541, “β-Lactamase Inhibitors To Restore the Efficacy of Antibiotics against Superbugs” (J Med Chem, 2020).
pIC50, pKi: −log10 of the molar value. Converted amounts (≈) assume the structure as drawn. One block for each molecule: values may come before it.

How the values were obtained:
[1] = system: Acinetobacter baumannii; assay: Inhibition of OXA-24/40 in Acinetobacter baumannii assessed as potentiation of imipenem-induced antibacterial activity by CLSI based broth microdilution method
[2] = system: Acinetobacter baumannii; assay: Inhibition of OXA-24/40 in Acinetobacter baumannii assessed as potentiation of meropenem-induced antibacterial activity by CLSI based broth microdilution method
[3] = Inhibition of AmpC beta-lactamase (unknown origin) by Cheng-Prusoff equation analysis; set-up: species or system Bacteria
[4] = Inhibition of NDM1 (unknown origin) using nitrocefin as substrate incubated for 10 mins by UV spectra analysis; set-up: species or system Bacteria
[5] = system: Pseudomonas aeruginosa; assay: Inhibition of Pseudomonas aeruginosa OXA-24/40 assessed as potentiation of piperacillin-induced antibacterial activity at 4 ug/ml by CLSI based broth microdilution method (reference value: > […] ug/ml)
[6] = system: Pseudomonas aeruginosa; assay: Inhibition of Pseudomonas aeruginosa AmpC assessed as potentiation of piperacillin-induced antibacterial activity at 4 ug/ml by CLSI based broth microdilution method (reference value: > […] ug/ml)
[7] = system: Pseudomonas aeruginosa; assay: Inhibition of Pseudomonas aeruginosa KPC-2 assessed as potentiation of piperacillin-induced antibacterial activity at 4 ug/ml by CLSI based broth microdilution method (reference value: > […] ug/ml)
[8] = system: Beta-lactamase (Acinetobacter baumannii), Q8RLA6 [Y112A,M223A]; assay: Inhibition of Acinetobacter baumannii OXA-24 Y112A/M223A mutant by spectrophotometric method relative to control; conditions: concentration not given here
[9] = system: Beta-lactamase (Acinetobacter baumannii), Q8RLA6 [Y112A]; assay: Inhibition of Acinetobacter baumannii OXA-24 Y112A mutant by spectrophotometric method relative to control; conditions: concentration not given here
[10] = Inhibition of Acinetobacter baumannii OXA-24 by spectrophotometric method
[11] = system: Acinetobacter baumannii; assay: Antibacterial activity against Acinetobacter baumannii JC12/04 clinical isolate harboring OXA-24/40 infected in BALB/c mouse pneumonia model assessed as reduction in bacterial burden by measuring bacterial growth at 50 mg,kg, im after 22 hrs co-treatment with imipenem; assay type: functional
[12] = system: Acinetobacter baumannii; assay: Antibacterial activity against Acinetobacter baumannii ATCC 17978 harboring OXA-24/40 infected in BALB/c mouse pneumonia model assessed as reduction in bacterial burden by measuring bacterial growth at 50 mg,kg, im after 22 hrs co-treatment with imipenem; assay type: functional
[13] = system: Acinetobacter baumannii; assay: Inhibition of Acinetobacter baumannii OXA-24 by spectrophotometry relative to control; conditions: concentration not given here
[14] = system: Acinetobacter baumannii; assay: Antibacterial activity against Acinetobacter baumannii Ab1 clinical isolate harboring OXA-23 infected in BALB/c mouse pneumonia model assessed as reduction in bacterial burden by measuring bacterial growth at 50 mg,kg, im after 22 hrs co-treatment with imipenem; assay type: functional
[15] = system: Acinetobacter baumannii; assay: Antibacterial activity against Acinetobacter baumannii ATCC 17978 harboring OXA-23 infected in BALB/c mouse pneumonia model assessed as reduction in bacterial burden by measuring bacterial growth at 50 mg,kg, im after 22 hrs co-treatment with imipenem; assay type: functional
[16] = system: Pseudomonas aeruginosa; assay: Antibacterial activity against Pseudomonas aeruginosa haboring AmpC assessed as reduction in microbial growth by CLSI based broth microdilution method; assay type: functional
[17] = system: Pseudomonas aeruginosa; assay: Antibacterial activity against Pseudomonas aeruginosa haboring KPC-2 assessed as reduction in microbial growth by CLSI based broth microdilution method; assay type: functional
[18] = system: Pseudomonas aeruginosa; assay: Antibacterial activity against Pseudomonas aeruginosa haboring OXA-24/40 assessed as reduction in microbial growth by CLSI based broth microdilution method; assay type: functional
[19] = system: Staphylococcus; assay: Antibacterial activity against methicillin-sensitive Staphylococcus; assay type: functional
[20] = system: Klebsiella pneumoniae; assay: Antibacterial activity against Klebsiella pneumoniae by CLSI based microdilution method
[21] = system: Escherichia coli; assay: Antibacterial activity against Escherichia coli by CLSI based microdilution method
[22] = system: Escherichia coli; assay: Inhibition of Escherichia coli PBP2 assessed as ratio of Kinact to Ki by SDS-PAGE based fluorescence assay
[23] = system: Acinetobacter baumannii; assay: Inhibition of Acinetobacter baumannii PBP2 assessed as ratio of Kinact to Ki by SDS-PAGE based fluorescence assay
[24] = system: Enterobacteriaceae; assay: Inhibition of Beta-lactamase OXA-48 in Enterobacteriaceae assessed as potentiation of meropenem-induced antibacterial activity by CLSI based agar dilution method
[25] = system: Enterobacteriaceae; assay: Inhibition of Beta-lactamase KPC in Enterobacteriaceae assessed as potentiation of meropenem-induced antibacterial activity by CLSI based agar dilution method
[26] = system: Enterobacteriaceae; assay: Inhibition of Beta-lactamase KPC in Enterobacteriaceae assessed as potentiation of imipenem-induced antibacterial activity by CLSI based agar dilution method
[27] = system: Enterobacteriaceae; assay: Inhibition of OXA-181 in Enterobacteriaceae assessed as potentiation of meropenem-induced antibacterial activity by CLSI based agar dilution method
[28] = system: Enterobacteriaceae; assay: Inhibition of OXA-181 in Enterobacteriaceae assessed as potentiation of imipenem-induced antibacterial activity by CLSI based agar dilution method
[29] = system: Enterobacteriaceae; assay: Inhibition of Beta-lactamase OXA-48 in Enterobacteriaceae assessed as potentiation of imipenem-induced antibacterial activity by CLSI based agar dilution method
[30] = system: Klebsiella pneumoniae; assay: Potentiation of cefepime-induced antibacterial activity against Klebsiella pneumoniae at 8 ug/ml by CLSI based microdilution method; assay type: functional
[31] = system: Escherichia coli; assay: Potentiation of cefepime-induced antibacterial activity against Escherichia coli at 8 ug/ml by CLSI based microdilution method; assay type: functional
[32] = system: Escherichia coli; assay: Antibacterial activity against Escherichia coli harboring beta-lactamase infected in mouse relative to control; assay type: functional
[33] = target: Beta-lactamase TEM (Escherichia coli, UniProt P62593); assay: Inhibition of Escherichia coli TEM-1 beta-lactamase
Sequence of Beta-lactamase TEM (P62593 whole entry): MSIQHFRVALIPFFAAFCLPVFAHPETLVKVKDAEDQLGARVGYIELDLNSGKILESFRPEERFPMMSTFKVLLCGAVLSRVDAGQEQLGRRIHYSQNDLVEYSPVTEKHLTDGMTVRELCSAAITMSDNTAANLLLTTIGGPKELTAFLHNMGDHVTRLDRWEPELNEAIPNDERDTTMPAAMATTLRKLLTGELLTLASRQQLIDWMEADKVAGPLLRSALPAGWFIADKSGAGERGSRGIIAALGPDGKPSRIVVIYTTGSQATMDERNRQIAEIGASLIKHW

Sequence of Beta-lactamase (Acinetobacter baumannii), Q8RLA6 [Y112A,M223A] (Q8RLA6 whole entry Y112A/M223A): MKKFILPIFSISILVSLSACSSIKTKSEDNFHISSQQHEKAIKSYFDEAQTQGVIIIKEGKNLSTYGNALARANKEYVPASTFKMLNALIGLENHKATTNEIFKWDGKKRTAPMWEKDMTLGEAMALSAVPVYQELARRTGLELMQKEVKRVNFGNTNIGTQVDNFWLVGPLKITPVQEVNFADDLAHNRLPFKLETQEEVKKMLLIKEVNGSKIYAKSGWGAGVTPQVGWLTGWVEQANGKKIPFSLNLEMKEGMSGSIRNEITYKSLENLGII
Sequence of Beta-lactamase (Acinetobacter baumannii), Q8RLA6 [Y112A] (Q8RLA6 whole entry Y112A): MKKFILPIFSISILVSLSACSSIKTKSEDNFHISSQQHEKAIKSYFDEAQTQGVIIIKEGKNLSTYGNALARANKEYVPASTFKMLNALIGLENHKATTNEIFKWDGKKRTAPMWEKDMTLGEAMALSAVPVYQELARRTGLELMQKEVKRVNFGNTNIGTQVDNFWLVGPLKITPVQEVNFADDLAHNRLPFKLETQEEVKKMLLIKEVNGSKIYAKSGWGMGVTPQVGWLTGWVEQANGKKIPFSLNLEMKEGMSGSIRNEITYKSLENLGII

Structure (SMILES): C[C@]1(Cn2ccnn2)[C@H](C(=O)O)N2C(=O)C[C@H]2S1(=O)=O
- MIC [1]: 16 µg/mL
- MIC [2]: 16 µg/mL

Structure (SMILES): O=C(NCB(O)O)S(=O)(=O)c1cc(-c2nnn[nH]2)cc(C(F)(F)F)c1
- pKi [3]: 10.30

Structure (SMILES): O=C(NCB(O)O)S(=O)(=O)c1cc(Cl)cc(-c2nnn[nH]2)c1
- pKi [3]: 9.70

Structure (SMILES): CC1=C[C@@H](CO)N2C[C@@H]1N(OS(=O)(=O)O)C2=O
- MIC [5]: 64 µg/mL
- MIC [6]: 32 µg/mL
- MIC [7]: 8 µg/mL

Structure (SMILES): C[C@]1(COC(=O)Cc2ccc(O)c(O)c2)[C@H](C(=O)O)N2C(=O)/C(=C/c3ccccn3)[C@H]2S1(=O)=O
- MIC [1]: 1 µg/mL
- inhibition [8]: 100%
- inhibition [9]: 100%
- pKi [10]: 6.15
- Activity [11]: 4.5 log10CFU/g
- Activity [12]: 2.5 log10CFU/g
- inhibition [13]: 100%
- MIC [2]: 1 µg/mL
- Activity [14]: 1.7 log10CFU/g
- Activity [15]: 4 log10CFU/g

Structure (SMILES): NC(=O)[C@@H]1CC[C@@H]2CN1C(=O)N2OS(=O)(=O)O
- MIC [5]: 64 µg/mL
- MIC [6]: 8 µg/mL
- MIC [7]: 8 µg/mL

Structure (SMILES): Cn1cc(/C=C2/C(=O)N3C(C(=O)O)=CS[C@H]23)nn1
- MIC [19]: 1 µg/mL (≈ 3.78 µM)

Structure (SMILES): CC1=C[C@@H](C#N)N2C[C@@H]1N(OS(=O)(=O)O)C2=O
- MIC [5]: 8 µg/mL
- MIC [6]: > 64 µg/mL
- MIC [7]: 64 µg/mL

Structure (SMILES): CO/N=C(\C(=O)N[C@@H]1C(=O)N2C(C(=O)[O-])=C(C[N+]3(C)CCCC3)CS[C@H]12)c1csc(N)n1 [CEFEPIME]
- MIC90 [20]: 16 µg/mL (≈ 33.3 µM)
- MIC90 [21]: > 64 µg/mL

Structure (SMILES): CC1=C[C@@H]2CN(C(=O)N2OS(=O)(=O)O)[C@@H]1C(N)=O
- MIC [5]: 8 µg/mL
- Ratio [22]: 1 ×10⁴ /M/s
- MIC [6]: 2 µg/mL
- MIC [7]: 4 µg/mL
- Ratio [23]: 1 ×10³ /M/s

Structure (SMILES): N#C[C@@H]1CC[C@@H]2CN1C(=O)N2OS(=O)(=O)O
- MIC [24]: < 2 µg/mL
- MIC [25]: < 2 µg/mL
- MIC [26]: < 2 µg/mL
- MIC [27]: < 2 µg/mL
- MIC [28]: < 2 µg/mL
- MIC [29]: < 2 µg/mL

Structure (SMILES): Cn1cc[n+](C[C@@]2(C)[C@H](C(=O)[O-])N3C(=O)C[C@H]3S2(=O)=O)n1 [ENMETAZOBACTAM]
- MIC90 [30]: 1 µg/mL
- MIC90 [31]: 0.5 µg/mL

Structure (SMILES): O=C(NCB(O)O)S(=O)(=O)c1ccnc(-c2nnn[nH]2)c1
- pKi [3]: 9.10
- Activity [32]: 65%

Structure (SMILES): C=C(C)C1=C[C@@H](COC)N2C[C@@H]1N(OS(=O)(=O)O)C2=O
- MIC [5]: > 64 µg/mL
- MIC [6]: > 64 µg/mL
- MIC [7]: > 64 µg/mL

Structure (SMILES): CC(=O)N[C@@H](Cc1cccc(C(=O)O)c1)B(O)O
- pKi [33]: 6.96

More lines, now with the values ahead:

- pIC50 [4]: 4.94
Structure (SMILES): N[C@@H](CN[C@@H](CN[C@H](CC(=O)O)C(=O)O)C(=O)O)C(=O)O

- pIC50 [4]: 5.03
Structure (SMILES): N[C@@H](CN[C@@H](CN[C@@H](CC(=O)O)C(=O)O)C(=O)O)C(=O)O

- pIC50 [4]: 4.99
Structure (SMILES): N[C@H](CN[C@H](CN[C@@H](CC(=O)O)C(=O)O)C(=O)O)C(=O)O

- MIC [16]: > 64 µg/mL
- MIC [17]: > 64 µg/mL
- MIC [18]: > 64 µg/mL
Structure (SMILES): CCN1CCN(C(=O)N[C@@H](C(=O)N[C@@H]2C(=O)N3[C@@H]2SC(C)(C)[C@@H]3C(=O)O)c2ccccc2)C(=O)C1=O [PIPERACILLIN]

- pIC50 [4]: 4.90
Structure (SMILES): N[C@@H](CN[C@H](CN[C@@H](CC(=O)O)C(=O)O)C(=O)O)C(=O)O

- pIC50 [4]: 4.92
Structure (SMILES): N[C@H](CN[C@@H](CN[C@@H](CC(=O)O)C(=O)O)C(=O)O)C(=O)O

- MIC [5]: 16 µg/mL
- MIC [6]: 8 µg/mL
- MIC [7]: 4 µg/mL
Structure (SMILES): CC1=C[C@@H](C(N)=O)N2C[C@@H]1N(OS(=O)(=O)O)C2=O
